Patent publication US7807703B2, “Substituted aryl ketones” (Bayer CropScience AG, priority 2002, dated 2010)

Assay: log P determination by reversed-phase HPLC (EEC Directive 79/831 Annex V.A8; acidic or neutral mobile phase)
Format: physicochemical
Conditions: HPLC reversed-phase C18, 43° C., acidic range: 0.1% aqueous phosphoric acid, acetonitrile (marked a))
Experimental: The log P values given in the table were determined in accordance with EEC Directive 79/831 Annex V.A8 by HPLC (High Performance Liquid Chromatography) using a reversed-phase column (C 18). Temperature: 43° C.
(a) Mobile phases for the determination in the acidic range: 0.1% aqueous phosphoric acid, acetonitrile; linear gradient from 10% acetonitrile to 90% acetonitrile—the corresponding measurement results are marked a) in Table 1.
(b) Mobile phases for the determination in the neutral range: 0.01 molar aqueous phosphate buffer solution, acetonitrile; linear gradient from 10% acetonitrile to 90% acetonitrile—the corresponding measurement results are marked b) in Table 1.

| Structure (SMILES) | logP |
| --- | --- |
| CS(=O)(=O)c1ccc(C(=O)C2C(=O)CCCC2=O)c(Cl)c1CNOCc1ccccc1 [Example 199] | (I-2) logP = 3.04^a) |
| CCn1ncc(C(=O)c2ccc(S(C)(=O)=O)c(CNOCc3ccccc3)c2Cl)c1O [Example 200] | (I-2) logP = 2.31^a) |
| CON(Cc1cccnc1)Cc1c(S(C)(=O)=O)ccc(C(=O)C2C(=O)CCCC2=O)c1Cl [Example 216] | (I-2) logP = 1.47^a) |

Same assay, conditions: HPLC, reversed-phase C18, 43° C.; acidic range a): 0.1% aqueous phosphoric acid, acetonitrile, linear gradient 10% to 90% acetonitrile

| Structure (SMILES) | logP |
| --- | --- |
| Cn1ncc(C(=O)c2ccc(Cl)c(OCCNS(C)(=O)=O)c2Cl)c1O [Example 353] | logP = 1.36^a) |
| CCn1ncc(C(=O)c2ccc(Cl)c(OCCNS(C)(=O)=O)c2Cl)c1O [Example 354] | logP = 1.54^a) |
| CCn1nc(C)c(C(=O)c2ccc(Cl)c(OCCNS(C)(=O)=O)c2Cl)c1O [Example 355] | logP = 1.32^a) |
| CCn1ncc(C(=O)c2ccc(Cl)c(OCCNS(=O)(=O)CC)c2C)c1O [Example 358] | logP = 2.03^a) |
| CCS(=O)(=O)NCCOc1c(Cl)ccc(C(=O)C2C(=O)CCCC2=O)c1C [Example 359] | logP = 2.33^a) |
| CCn1ncc(C(=O)c2ccc(Cl)c(OCCNS(C)(=O)=O)c2C)c1O [Example 360] | logP = 1.82^a) |
| Cc1c(C(=O)C2C(=O)CCCC2=O)ccc(Cl)c1OCCNS(C)(=O)=O [Example 361] | logP = 2.13^a) |
| CCn1ncc(C(=O)c2ccc(Br)c(OCCNS(=O)(=O)CC)c2C)c1O [Example 362] | logP = 2.09^a) |
| CCS(=O)(=O)NCCOc1c(Br)ccc(C(=O)c2cnn(C)c2O)c1C [Example 363] | logP = 1.77^a) |
| CCS(=O)(=O)NCCOc1c(Br)ccc(C(=O)C2C(=O)CCCC2=O)c1C [Example 364] | logP = 2.41^a) |
| CCn1ncc(C(=O)c2ccc(Br)c(OCCNS(C)(=O)=O)c2C)c1O [Example 365] | logP = 1.89^a) |
| Cc1c(C(=O)c2cnn(C)c2O)ccc(Br)c1OCCNS(C)(=O)=O [Example 366] | logP = 1.56^a) |
| Cc1c(C(=O)C2C(=O)CCCC2=O)ccc(Br)c1OCCNS(C)(=O)=O [Example 367] | logP = 2.19^a) |
| CCN(Cc1c(S(C)(=O)=O)ccc(C(=O)c2cnn(C)c2O)c1Cl)OC [Example 369] | logP = 1.84^a) |
| CCn1ncc(C(=O)c2ccc(S(C)(=O)=O)c(CN(OC)C(C)C)c2Cl)c1O [Example 370] | logP = 2.52^a) |
| CON(Cc1c(S(C)(=O)=O)ccc(C(=O)c2cnn(C)c2O)c1Cl)C(C)C [Example 371] | logP = 2.16^a) |
| CCn1ncc(C(=O)c2ccc(S(C)(=O)=O)c(CN(OC)C(C)C3CC3)c2Cl)c1O (stereo not drawn) [Example 373] | (I-2) logP = 2.94^a) |
| CON(Cc1c(S(C)(=O)=O)ccc(C(=O)c2cnn(C)c2O)c1Cl)C(C)C1CC1 (stereo not drawn) [Example 374] | (I-2) logP = 2.53^a) |
| CON(Cc1c(S(C)(=O)=O)ccc(C(=O)c2cnn(C)c2O)c1Cl)C1CCCC1 [Example 378] | (I-2) logP = 2.59^a) |
| CCn1ncc(C(=O)c2ccc(S(C)(=O)=O)c(CN(OC)C3CCCC3)c2Cl)c1O [Example 379] | (I-2) logP = 2.99^a) |
| CON(Cc1cccnc1)Cc1c(S(C)(=O)=O)ccc(C(=O)c2cnn(C)c2O)c1Cl [Example 386] | (I-2) logP = 0.64^a) |
| CCN(CC)C(=O)CN(Cc1c(S(C)(=O)=O)ccc(C(=O)c2cnn(C)c2O)c1Cl)OC [Example 388] | (I-2) logP = 1.59^a) |
| CCN(CC)C(=O)CN(Cc1c(S(C)(=O)=O)ccc(C(=O)c2cnn(CC)c2O)c1Cl)OC [Example 389] | (I-2) logP = 1.85^a) |
| CCON(CC)Cc1c(S(C)(=O)=O)ccc(C(=O)C2C(=O)CCCC2=O)c1Cl [Example 390] | logP = 3.22^a) |
| CCON(Cc1c(S(C)(=O)=O)ccc(C(=O)c2cnn(CC)c2O)c1Cl)C(C)C [Example 392] | logP = 2.89^a) |
| CC(C)ON(C)Cc1c(S(C)(=O)=O)ccc(C(=O)C2C(=O)CCCC2=O)c1Cl [Example 393] | logP = 3.14^a) |

| Structure (SMILES) | logP |
| --- | --- |
| CCn1ncc(C(=O)c2ccc(S(C)(=O)=O)c(CN(C)OC(C)C)c2Cl)c1O [Example 395] | logP = 2.33^a) |
| CON(CC(=O)N(C)C)Cc1c(S(C)(=O)=O)ccc(C(=O)C2C(=O)CCCC2=O)c1Cl [Example 396] | (I-2) logP = 1.93^a) |
| CCn1ncc(C(=O)c2ccc(S(C)(=O)=O)c(CN(C)OC3CCCC3)c2Cl)c1O [Example 397] | (I-2) logP = 2.87^a) |
| CN(Cc1c(S(C)(=O)=O)ccc(C(=O)C2C(=O)CCCC2=O)c1Cl)OC1CCCC1 [Example 398] | (I-2) logP = 3.69^a) |
| CC(C)ON(Cc1c(S(C)(=O)=O)ccc(C(=O)C2C(=O)CCC(C)(C)C2=O)c1Cl)C(C)C (stereo not drawn) [Example 399] | (I-2) logP = 4.80^a) |
| CC(C)ON(Cc1c(S(C)(=O)=O)ccc(C(=O)c2cnn(C)c2O)c1Cl)C(C)C [Example 400] | logP = 2.81^a) |
| CS(=O)(=O)c1ccc(C(=O)C2C(=O)CCCC2=O)c(Cl)c1CNOC1CCCC1 [Example 401] | (I-2) logP = 3.07^a) |
| CCN(Cc1c(S(C)(=O)=O)ccc(C(=O)C2C(=O)CCCC2=O)c1Cl)OC(C)C [Example 402] | logP = 3.52^a) |
| CCN(Cc1c(S(C)(=O)=O)ccc(C(=O)C2C(=O)CCC(C)(C)C2=O)c1Cl)OC(C)C (stereo not drawn) [Example 403] | (I-2) logP = 4.36^a) |
| CCN(Cc1c(S(C)(=O)=O)ccc(C(=O)c2cnn(CC)c2O)c1Cl)OC(C)C [Example 404] | logP = 2.79^a) |
| CCN(Cc1c(S(C)(=O)=O)ccc(C(=O)C2C(=O)CCC(C)(C)C2=O)c1Cl)OC (stereo not drawn) [Example 405] | (I-2) logP = 3.70^a) |
| CCN(Cc1c(S(C)(=O)=O)ccc(C(=O)c2c(C)nn(CC)c2O)c1Cl)OC [Example 406] | (I-2) logP = 2.04^a) |
| CCN(Cc1c(S(C)(=O)=O)ccc(C(=O)c2c(C)nn(C)c2O)c1Cl)OC [Example 407] | (I-2) logP = 1.76^a) |
| CON(Cc1c(S(C)(=O)=O)ccc(C(=O)C2C(=O)CCCC2=O)c1Cl)CC1CCOC1 (stereo not drawn) [Example 408] | (I-2) logP = 2.50^a) |
| CON(Cc1c(S(C)(=O)=O)ccc(C(=O)C2C(=O)CCCC2=O)c1Cl)C1CCOC1 (stereo not drawn) [Example 409] | (I-2) logP = 2.32^a) |
| CCn1ncc(C(=O)c2ccc(S(C)(=O)=O)c(CN(OC)C3CCOC3)c2Cl)c1O (stereo not drawn) [Example 410] | (I-2) logP = 1.70^a) |
| CON(Cc1c(S(C)(=O)=O)ccc(C(=O)C2C(=O)CCCC2=O)c1Cl)C1CCCOC1 (stereo not drawn) [Example 411] | (I-2) logP = 2.74^a) |
| CCn1ncc(C(=O)c2ccc(S(C)(=O)=O)c(CN(OC)C3CCCOC3)c2Cl)c1O (stereo not drawn) [Example 412] | (I-2) logP = 2.01^a) |
| CCON(C)Cc1c(S(C)(=O)=O)ccc(C(=O)c2cnn(CC)c2O)c1Cl [Example 413] | logP = 2.09^a) |
| CCON(C)Cc1c(S(C)(=O)=O)ccc(C(=O)c2cnn(C)c2O)c1Cl [Example 414] | logP = 1.71^a) |
| CCON(Cc1c(S(C)(=O)=O)ccc(C(=O)C2C(=O)CCCC2=O)c1Cl)CC1CCOC1 (stereo not drawn) [Example 415] | (I-2) logP = 2.84^a) |
| CCON(Cc1c(S(C)(=O)=O)ccc(C(=O)c2cnn(CC)c2O)c1Cl)CC1CCOC1 (stereo not drawn) [Example 416] | (I-2) logP = 2.11^a) |
| CCn1ncc(C(=O)c2ccc(S(C)(=O)=O)c(CN(CC3CCOC3)OC3CCCC3)c2Cl)c1O (stereo not drawn) [Example 417] | (I-2) logP = 2.76^a) |
| CCON(Cc1c(S(C)(=O)=O)ccc(C(=O)C2C(=O)CCCC2=O)c1Cl)C(C)C [Example 418] | logP = 3.66^a) |
| CON(CC(=O)N(C)C)Cc1c(S(C)(=O)=O)ccc(C(=O)C2C(=O)CCC(C)(C)C2=O)c1Cl (stereo not drawn) [Example 419] | (I-2) logP = 2.58^a) |
| CC(C)ON(Cc1c(S(C)(=O)=O)ccc(C(=O)C2C(=O)CCCC2=O)c1Cl)C(C)C [Example 420] | logP = 3.99^a) |

Same assay, conditions: HPLC, reversed-phase C 18, 43° C.; mobile phase range not marked

| Structure (SMILES) | logP (HPLC, mobile phase not marked) |
| --- | --- |
| CCn1ncc(C(=O)c2ccc(S(C)(=O)=O)c(CNOC)c2Cl)c1O [Example 299] | 1.20 |
| CON(C)Cc1c(S(C)(=O)=O)ccc(C(=O)C2C(=O)CCCC2=O)c1Cl [Example 303] | (I-2) 2.49 |
| CCn1ncc(C(=O)c2ccc(S(C)(=O)=O)c(CN(C)OC)c2Cl)c1O [Example 304] | 1.78 |
| CCn1nc(C)c(C(=O)c2ccc(S(C)(=O)=O)c(CN(C)OC)c2Cl)c1O [Example 307] | 1.45 |
| CCN(Cc1c(S(C)(=O)=O)ccc(C(=O)C2C(=O)CCCC2=O)c1Cl)OC [Example 308] | (I-2) 2.87 |
| CCN(Cc1c(S(C)(=O)=O)ccc(C(=O)c2cnn(CC)c2O)c1Cl)OC [Example 309] | 2.16 |
| CCN(Cc1c(S(C)(=O)=O)ccc(C(=O)c2cnn(C)c2O)c1Cl)OC [Example 310] | 1.84 |
| CCn1ncc(C(=O)c2ccc(S(C)(=O)=O)c(CN(Cc3ccccc3)OC)c2Cl)c1O [Example 334] | 2.82 |
| CON(Cc1ccccc1)Cc1c(S(C)(=O)=O)ccc(C(=O)c2cnn(C)c2O)c1Cl [Example 335] | 2.48 |
| CON(Cc1c(S(C)(=O)=O)ccc(C(=O)C2C(=O)CCCC2=O)c1Cl)C(C)C [Example 343] | (I-2) 3.26 |
| CCn1ncc(C(=O)c2ccc(S(C)(=O)=O)c(CN(OC)C(C)C)c2Cl)c1O [Example 344] | 2.52 |
| CON(Cc1c(S(C)(=O)=O)ccc(C(=O)c2cnn(C)c2O)c1Cl)C(C)C [Example 345] | 2.16 |
| CS(=O)(=O)c1ccc(C(=O)C2C(=O)CCCC2=O)c(Cl)c1CNOCc1ccccc1 [Example 348] | (I-2) 3.04 |
| CCn1ncc(C(=O)c2ccc(S(C)(=O)=O)c(CNOCc3ccccc3)c2Cl)c1O [Example 349] | 2.31 |
